The values that follow come from patent US9133139B2, “Fluoroalkyl-1,4-benzodiazepinone compounds” (BRISTOL-MYERS SQUIBB COMPANY, priority 2012, dated 2015).

This data set in a line: Human metabolic stability half-life assay (liver microsomes). The data set is classed as in vitro ADME. The note with it: pH 7.4, human liver microsomes, CYP-mediated (NADPH-dependent), 0.5 μM compound, 45-minute time course, read-out: HLM (t1/2, min). As to the method:
Metabolic Stability Half-Life Panel
Result Interpretation Guideline
Incubation with Liver Microsomes
Sample Analysis—Instrumentation
Background: Liver microsomes are a subcellular fraction often used to study metabolism.

Take `CCC[C@H](C(N)=O)[C@@H](CC(C)C)C(=O)N[C@H]1N=C(c2ccccc2)c2ccccc2N(C)C1=O` [Comparative Compound 37, reference compound]: the half-life at 0.5 μM was not above 8 min.

Turning to `C=CC[C@H](C(N)=O)[C@@H](CC(C)C)C(=O)N[C@H]1N=C(c2ccccc2)c2cc(Cl)ccc2N(C)C1=O` [Comparative Compound 38, reference compound], the half-life at 0.5 μM is not above 8 min.

With `CCCC[C@H](C(N)=O)[C@@H](CC(C)C)C(=O)N[C@H]1N=C(c2ccc(Cl)cc2)c2ccccc2N(C)C1=O` [Comparative Compound 39, reference compound], the half-life at 0.5 μM is not above 8 min.

Consider `C=CC[C@H](C(N)=O)[C@@H](CC(C)C)C(=O)N[C@H]1N=C(c2ccccc2)c2ccccc2N(CCC)C1=O` [Comparative Compound 40, reference compound], for which the half-life at 0.5 μM is not above 8 min.

With `Cc1nocc1[C@H](C(N)=O)[C@@H](CCC(F)(F)F)C(=O)N[C@H]1N=C(c2ccccc2)c2ccccc2N(C)C1=O` [Example 6, (2R,3R)—N1-((S)-1-Methyl-2-oxo-5-phenyl-2,3-dihydro-1H-benzo[e][1,4]diazepin-3-yl)-3-(3-methylisoxazol-4-yl)-2-(3,3,3-trifluoropropyl)succinamide], the half-life at 0.5 μM was not below 30 min.

On to `Cc1nocc1[C@H](C(N)=O)[C@@H](CCC(F)(F)F)C(=O)N[C@H]1N=C(c2ccccc2)c2ccccc2NC1=O` [Example 9], for which the half-life at 0.5 μM was not below 30 min.

In the case of `Cc1nocc1[C@H](C(N)=O)[C@@H](CCC(F)(F)F)C(=O)N[C@H]1N=C(c2ccccc2)c2cc3c(cc2NC1=O)OCO3` [Example 13, (2R,3R)-3-(3-Methyl-4-isoxazolyl)-N-((7S)-6-oxo-9-phenyl-6,7-dihydro-5H-[1,3]dioxolo[4,5-h][1,4]benzodiazepin-7-yl)-2-(3,3,3-trifluoropropyl)succinamide], the half-life at 0.5 μM is not below 30 min.

For `COc1ccc(N2C(=O)[C@@H](NC(=O)[C@H](CCC(F)(F)F)[C@@H](C(N)=O)c3conc3C)N=C(c3ccccc3)c3ccccc32)nc1` [Example 14, (2R,3R)—N-((3S)-1-(5-Methoxy-2-pyridinyl)-2-oxo-5-phenyl-2,3-dihydro-1H-1,4-benzodiazepin-3-yl)-3-(3-methyl-4-isoxazolyl)-2-(3,3,3-trifluoropropyl)succinamide], the half-life at 0.5 μM was not below 30 min.

Regarding `Cc1nocc1[C@H](C(N)=O)[C@@H](CCC(F)(F)F)C(=O)N[C@H]1N=C(c2ccccc2)c2cccc(Cl)c2NC1=O` [Example 17, (2R,3R)—N1-((S)-9-Chloro-2-oxo-5-phenyl-2,3-dihydro-1H-benzo[e][1,4]diazepin-3-yl)-3-(3-methylisoxazol-4-yl)-2-(3,3,3-trifluoropropyl)succinamide], the half-life at 0.5 μM was not below 30 min.

For the molecule `COc1cccc2c1NC(=O)[C@@H](NC(=O)[C@H](CCC(F)(F)F)[C@@H](C(N)=O)c1conc1C)N=C2c1ccccc1` [Example 20, (2R,3R)—N1-((S)-9-Methoxy-2-oxo-5-phenyl-2,3-dihydro-1H-benzo[e][1,4]diazepin-3-yl)-3-(3-methylisoxazol-4-yl)-2-(3,3,3-trifluoropropyl)succinamide], the half-life at 0.5 μM is not below 30 min.

In the case of `Cc1cccc2c1NC(=O)[C@@H](NC(=O)[C@H](CCC(F)(F)F)[C@@H](C(N)=O)c1conc1C)N=C2c1cccc(C(F)(F)F)c1` [Example 28, (2R,3R)—N1-((S)-9-Methyl-2-oxo-5-(3-(trifluoromethyl)phenyl)-2,3-dihydro-1H-benzo[e][1,4]diazepin-3-yl)-3-(3-methylisoxazol-4-yl)-2-(3,3,3-trifluoropropyl)succinamide], the half-life at 0.5 μM was not below 30 min.

On to `Cc1cccc2c1NC(=O)[C@@H](NC(=O)[C@H](CCC(F)(F)F)[C@@H](C(N)=O)c1ccccc1)N=C2c1cccc(C(F)(F)F)c1` [Example 29, (2R,3R)—N1-((S)-9-Methyl-2-oxo-5-(3-(trifluoromethyl)phenyl)-2,3-dihydro-1H-benzo[e][1,4]diazepin-3-yl)-3-phenyl-2-(3,3,3-trifluoropropyl)succinamide], for which the half-life at 0.5 μM is not below 30 min.
